From ChEMBL document CHEMBL1155430, “Discovery of novel and potent benzhydryl-tropane trypanocides highly selective for Trypanosoma cruzi” (Bioorg Med Chem Lett, 2010)

Key:
L6 = assay: Cytotoxicity against rat L6 cells; type: cell-based
Trypanosoma cruzi = assay: Antiparasitic activity against Trypanosoma cruzi Tulahuen C2C4 amastigotes; type: functional, organism-based
[1] = Selectivity index, ratio of EC50 for Trypanosoma cruzi Tulahuen C2C4 amastigotes to the EC50 for rat L6 cells
[2] = system: Trypanosoma brucei rhodesiense; assay: Antiparasitic activity against Trypanosoma brucei rhodesiense STIB900 bloodstream form; type: functional, organism-based
Plasmodium falciparum = assay: Antiparasitic activity against Plasmodium falciparum 3D7 at erythrocytic stage; type: functional, organism-based
Leishmania donovani = assay: Antiparasitic activity against Leishmania donovani MHOM/ET/67/L82 amastigotes; type: functional, organism-based
Trypanothione reductase = Trypanothione reductase (Trypanosoma cruzi, UniProt P28593); assay: Inhibition of Trypanosoma cruzi X10/1 recombinant trypanothione reductase assessed as increase in absorbance at 410 nm due to the formation of TNB
Trypanothione reductase, sequence (P28593 whole entry): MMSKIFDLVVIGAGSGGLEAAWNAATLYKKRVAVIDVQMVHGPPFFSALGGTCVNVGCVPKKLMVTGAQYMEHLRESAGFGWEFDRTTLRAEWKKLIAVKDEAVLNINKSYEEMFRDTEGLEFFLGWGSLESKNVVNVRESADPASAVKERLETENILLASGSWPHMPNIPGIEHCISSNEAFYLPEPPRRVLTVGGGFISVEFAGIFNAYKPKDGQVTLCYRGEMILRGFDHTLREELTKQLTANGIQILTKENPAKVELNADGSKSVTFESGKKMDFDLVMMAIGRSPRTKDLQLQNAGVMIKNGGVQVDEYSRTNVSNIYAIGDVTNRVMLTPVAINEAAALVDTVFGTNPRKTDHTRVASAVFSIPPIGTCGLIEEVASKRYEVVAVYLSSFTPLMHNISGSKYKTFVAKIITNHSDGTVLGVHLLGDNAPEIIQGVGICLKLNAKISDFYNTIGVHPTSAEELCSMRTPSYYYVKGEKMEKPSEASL

Row | Structure (SMILES) | EC50 (L6) | EC50 (Trypanosoma cruzi) | other results
1 | CN1C2CCC1CC(=NOC(c1ccccc1)c1ccccc1Cl)C2 (stereo not drawn) | 15 µM | 6.8 µM | 
2 | CN1C2CCC1CC(=NOC(Cc1ccc(Cl)cc1)c1ccccc1)C2 (stereo not drawn) | 49 µM | 1.9 µM | 
3 | CN1C2CCC1CC(=NOCc1ccccc1)C2 | > 100 µM | > 10 µM | 
4 | CC(C)=NOC(c1ccccc1)c1ccc(Cl)cc1 (stereo not drawn) | > 100 µM | > 10 µM | 
5 | CN1C2CCC1CC(=NOC(CCc1ccc(Cl)cc1)c1ccccc1)C2 (stereo not drawn) | 16 µM | 0.8 µM | 
6 | CN1C2CCC1CC(=NOC1c3ccccc3-c3ccccc31)C2 | 68 µM | > 10 µM | 
7 | CN1C2CCC1CC(=NOC(c1ccccc1)c1cccc(Cl)c1)C2 (stereo not drawn) | 19 µM | 2.1 µM | 
8 | COc1ccccc1C(ON=C1CC2CCC(C1)N2C)c1ccccc1 (stereo not drawn) | > 100 µM | > 10 µM | 
9 | OCCN1C2CCC1CC(=NOC(c1ccccc1)c1ccc(Cl)cc1)C2 (stereo not drawn) | 47 µM | 7.8 µM | 
10 | CN1C2CCC1CC(=NOC(CCc1ccccc1)c1ccc(Cl)cc1)C2 (stereo not drawn) | 20 µM | 6.5 µM | 
11 | CN1CCC(=NOC(c2ccccc2)c2ccc(Cl)cc2)CC1 (stereo not drawn) | 50 µM | 3.7 µM | 
12 | CN1C2CCC1CC(=NOC(c1ccc(Cl)cc1)c1ccccn1)C2 (stereo not drawn) | > 100 µM | 2.9 µM | 
13 | CN1C2CCC1CC(=NOC(c1ccc(Cl)cc1)c1cncs1)C2 (stereo not drawn) | > 100 µM | 6 µM | 
14 | CN1C2CCC1CC(=NOC(Cc1ccccc1)c1ccc(Cl)cc1)C2 (stereo not drawn) | 40 µM | 2.1 µM | 
15 | CN1C2CCC1CC(=NOC(c1ccccc1)c1ccccc1)C2 | > 100 µM | 1.3 µM | 
16 | COc1ccc(C(ON=C2CC3CCC(C2)N3C)c2ccccc2)cc1 (stereo not drawn) | > 100 µM | 0.3 µM | 
17 | COc1cccc(C(ON=C2CC3CCC(C2)N3C)c2ccccc2)c1 (stereo not drawn) | 48 µM | 2 µM | 
18 | CN1C2CCC1CC(=NOC(c1ccc(Cl)cc1)c1cscn1)C2 (stereo not drawn) | 71 µM | 0.8 µM | 
19 | CN(C)CCN1C2CCC1CC(=NOC(c1ccccc1)c1ccc(Cl)cc1)C2 (stereo not drawn) | 15 µM | 6.9 µM | 
20 | CN1C2CCC1CC(=NOC(c1ccccc1)c1ccc(C#N)cc1)C2 (stereo not drawn) | 53 µM | 0.4 µM | 

Row | Structure (SMILES) | EC50 (L6) | EC50 (Trypanosoma cruzi) | other results
21 | CN1C2CCC1CC(=NOC(c1ccccc1)c1ccc(F)cc1)C2 (stereo not drawn) | 50 µM | 0.8 µM | 
22 | CN1C2CCC1CC(=NOC(c1ccccc1)c1ccc(Br)cc1)C2 (stereo not drawn) | 40 µM | 0.04 µM | 
23 | CN1C2CCC1CC(=NOC(c1ccccc1)c1ccc(I)cc1)C2 (stereo not drawn) | 39 µM | 0.04 µM | 
24 | Cc1ccc(C(ON=C2CC3CCC(C2)N3C)c2ccccc2)cc1 (stereo not drawn) | 51 µM | 0.3 µM | 
25 | CN1C2CCC1CC(=NOC(c1ccccc1)c1ccc(C(F)(F)F)cc1)C2 (stereo not drawn) | 35 µM | 0.03 µM | Ratio EC50 [1]: >1000
26 | CN1C2CCC1CC(=NOC(c1ccc(Cl)cc1)c1ccc(Cl)cc1)C2 | 16 µM | 6 µM | 
27 | CN1C2CCC1CC(=NOC(CCCc1ccccc1)c1ccc(Cl)cc1)C2 (stereo not drawn) | 17 µM | 4.3 µM | 
28 | Clc1ccc(C(ON=C2CCCCC2)c2ccccc2)cc1 (stereo not drawn) | > 100 µM | > 10 µM | 
29 | CN1C2CCC1CC(=NOC(c1ccc(Cl)cc1)c1cccnc1)C2 (stereo not drawn) | > 100 µM | 0.5 µM | 
30 | CN1C2CCC1CC(=NOC(c1ccncc1)c1ccc(Cl)cc1)C2 (stereo not drawn) | > 100 µM | 6.2 µM | 
31 | CN1C2CCC1CC(=NOC(c1ccc(Cl)cc1)c1nccs1)C2 (stereo not drawn) | > 100 µM | 2.3 µM | 
32 | CN1C2CCC1CC(=NOCc1ccc(Cl)cc1)C2 | > 100 µM | > 10 µM | 
33 | Clc1ccc(C(ON=C2CC3CCC(C2)N3)c2ccccc2)cc1 (stereo not drawn) | 9.8 µM | 2 µM | 
34 | CN1C2CCC1CC(=NOC(c1ccccc1)c1ccc(Cl)cc1)C2 (stereo not drawn) | 36 µM | 0.11 µM | EC50 [2]: 3 µM; EC50 (Plasmodium falciparum): 7.5 µM; EC50 (Leishmania donovani): > 30 µM; EC50 (Trypanothione reductase): 35 µM
35 | O=C(Cn1ccnc1[N+](=O)[O-])NCc1ccccc1 [BENZNIDAZOLE] |  | 1.8 µM | 
36 | CCN(CC)CCCC(C)Nc1ccnc2cc(Cl)ccc12 (stereo not drawn) [CHLOROQUINE] |  |  | EC50 (Plasmodium falciparum): 0.0094 µM
37 | Nc1nc(N)nc(Nc2ccc([As]3SCC(CO)S3)cc2)n1 (stereo not drawn) [MELARSOPROL] |  |  | EC50 [2]: 0.017 µM
38 | CCCCCCCCCCCCCCCCOP(=O)([O-])OCC[N+](C)(C)C [MILTEFOSINE] |  |  | EC50 (Leishmania donovani): 0.27 µM
39 | COc1cc([C@@H]2c3cc4c(cc3[C@H](O)[C@H]3COC(=O)[C@H]23)OCO4)cc(OC)c1OC [PODOFILOX] | 0.014 µM |  | 
